Data from US8461209B2, “Malonic acid sulfonamide derivative and pharmaceutical use thereof” (Mitsubishi Tanabe Pharma Corporation, priority 2007, dated 2013).
pKi: −log10 of the molar value.

Each molecule was assayed against T1, human recombinant AT2 receptor (Homo sapiens, UniProt P50052) (assay: Affinity for AT2 receptor (receptor binding assay)). Conditions: membrane fraction from HeLa cells expressing human recombinant AT2 receptor; 125I-[Sar1, Ile8]-Ang II 0.1 nmol/L.
T1 construct: purchased PerkinElmer 6110538; host or cells: HeLa cells
T1 sequence (P50052 1-363): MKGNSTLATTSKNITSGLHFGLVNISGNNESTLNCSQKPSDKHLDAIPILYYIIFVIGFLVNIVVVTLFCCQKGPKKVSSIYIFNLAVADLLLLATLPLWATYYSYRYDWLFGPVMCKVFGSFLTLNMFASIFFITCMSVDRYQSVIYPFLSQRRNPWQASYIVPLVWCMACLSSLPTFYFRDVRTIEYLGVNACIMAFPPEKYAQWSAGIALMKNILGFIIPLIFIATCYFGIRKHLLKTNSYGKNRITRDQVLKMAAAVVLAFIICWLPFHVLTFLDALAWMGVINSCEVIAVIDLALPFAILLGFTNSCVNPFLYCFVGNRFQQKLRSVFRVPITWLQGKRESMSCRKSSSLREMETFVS
Protocol: Using a commercially available receptor membrane fraction (PerkinElmer, Cat No. 6110538) obtained from HeLa cells expressing human recombinant AT2 receptor, a receptor binding assay was performed. ^125I-[Sar^1, Ile^8]-Ang II (0.8 kBq, final concentration 0.1 nmol/L) and various concentrations of the compound of the present invention were added to a solution of 50 mmol/L Tris-HCl (pH 7.4), 125 mmol/L NaCl, 6.5 mmol/L MgCl2 and 1 mmol/L EDTA containing the receptor membrane fraction, and the mixture was incubated at room temperature for 90 min. Bound or free ^125I-[Sar^1, Ile^8]-Ang II was separated with a glass fiber filter (Millipore, MultiScreen FB Plate), and the radioactivity of ^125I-[Sar^1, Ile^8]-Ang II bound to the receptor was determined. […] On the other hand, Kd value of ^125I-[Sar^i, Ile^8]-Ang II for AT2 receptor in the absence of the compound of the present invention was determined by Scatchard analysis. Using the IC50 value obtained from the concentration-response curve and the Kd value of ^125I-[Sar^1, Ile^8]-Ang II, the Ki value of the compound of the present invention was calculated and used as an index of the affinity for AT2 receptor.

Row | SMILES | pKi
1 | CC(C)CC(C(=O)NS(=O)(=O)/C=C/c1ccccc1)C(=O)N(c1ccc(F)cc1)C(C)C (stereo not shown) [Example 491, N-(4-fluorophenyl)-2-isobutyl-N-isopropyl-N′-((E)-styrylsulfonyl)malonamide] | 8.04
2 | CCN(CC)C(=O)C(CCCc1ccc(N)cc1)C(=O)NS(=O)(=O)c1ccc2ccccc2c1 (stereo not shown) [Example 147, 2-[3-(4-aminophenyl)propyl]-N,N-diethyl-N′-(2-naphthylsulfonyl)malonamide] | 7.47
3 | CCN(CC)C(=O)[C@H](Cc1ccc(NC(=O)c2ccccn2)cc1)C(=O)NS(=O)(=O)c1ccc2ccccc2c1 [Example 101, (2S)—N,N-diethyl-N′-(2-naphthylsulfonyl)-2-{4-[(2-pyridylcarbonyl)amino]benzyl}malonamide] | 7.80
4 | CCN(CC)C(=O)[C@H](Cc1ccc(NC(=O)c2cc(C)ccc2N)cc1)C(=O)NS(=O)(=O)c1ccc2ccccc2c1 [Example 108, (2S)-2-{4-[(2-amino-5-methylbenzoyl)amino]benzyl}-N,N-diethyl-N′-(2-naphthylsulfonyl)malonamide] | 8.01
5 | CC(C)CC(C(=O)NS(=O)(=O)CCCOc1ccccc1)C(=O)N(c1ccc(F)cc1)C(C)C (stereo not shown) [Example 496, N-(4-fluorophenyl)-2-isobutyl-N-isopropyl-N′-(3-phenoxypropylsulfonyl)malonamide] | 7.92
6 | CC(C)N(C(=O)C(CC1CC1)C(=O)NS(=O)(=O)CCc1ccccc1)c1ccc(F)cc1 (stereo not shown) [Example 529, 2-cyclopropylmethyl-N-(4-fluorophenyl)-N-isopropyl-N′-phenethylsulfonylmalonamide] | 8.00
7 | CCN(C(=O)C(Cc1cnn(Cc2ccccc2)c1)C(=O)NS(=O)(=O)/C=C/c1ccccc1)c1ccccc1 (stereo not shown) [Example 371, 2-[(1-benzyl-1H-pyrazol-4-yl)methyl]-N-ethyl-N-phenyl-N′-((E)-styrylsulfonyl)malonamide] | 7.92
8 | CCN(C(=O)C(CC(=O)N1CCc2ccccc2C1)C(=O)NS(=O)(=O)/C=C/c1ccccc1)c1ccccc1 (stereo not shown) [Example 441, 2-[2-(3,4-dihydroisoquinolin-2(1H)-yl)-2-oxoethyl]-N-ethyl-N-phenyl-N′-((E)-styrylsulfonyl)malonamide] | 7.96
9 | C=CCC(C(=O)NS(=O)(=O)/C=C/c1ccccc1)C(=O)N(CC)c1cccc(C(F)(F)F)c1 (stereo not shown) [Example 475, 2-allyl-N-ethyl-N′-((E)-styrylsulfonyl)-N-(3-trifluoromethylphenyl)malonamide] | 7.89
10 | CCN(CC)C(=O)C(Cc1ccc(NC(=O)Oc2ccccc2)cc1)C(=O)NS(=O)(=O)c1ccc2ccccc2c1 (stereo not shown) [Example 87, N,N-diethyl-N′-(2-naphthylsulfonyl)-2-[4-(phenoxycarbonylamino)benzyl]malonamide] | 7.64
11 | CC(C)N(C(=O)C(CC1CC1)C(=O)NS(=O)(=O)c1ccc2ccccc2c1)c1ccc(F)cc1 (stereo not shown) [Example 530, 2-cyclopropylmethyl-N-(4-fluorophenyl)-N-isopropyl-N′-(2-naphthylsulfonyl)malonamide] | 7.89

Results, then the molecule that gave them:

Row | pKi | SMILES
12 | 8.49 | CCN(CC)C(=O)[C@H](Cc1ccc(NC(=O)c2ccc(Cl)cc2N)cc1)C(=O)NS(=O)(=O)c1ccc2ccccc2c1 [Example 103, (2S)-2-{4-[(2-amino-4-chlorobenzoyl)amino]benzyl}-N,N-diethyl-N′-(2-naphthylsulfonyl)malonamide]
13 | 8.27 | CCN(CC)C(=O)[C@H](Cc1ccc(NC(=O)c2cc(Cl)ccc2N)cc1)C(=O)NS(=O)(=O)c1ccc2ccccc2c1 [Example 105, (2S)-2-{4-[(2-amino-5-chlorobenzoyl)amino]benzyl}-N,N-diethyl-N′-(2-naphthylsulfonyl)malonamide]
14 | 8.48 | CCN(CC)C(=O)[C@H](Cc1ccc(NC(=O)c2ccccc2N)cc1)C(=O)NS(=O)(=O)c1ccc2ccccc2c1 [Example 104, (2S)-2-{4-[(2-aminobenzoyl)amino]benzyl}-N,N-diethyl-N′-(2-naphthylsulfonyl)malonamide]
15 | 8.19 | CC(C)N(C(=O)C(Cc1ccc(F)cc1)C(=O)NS(=O)(=O)/C=C/c1ccccc1)c1cccnc1 (stereo not shown) [Example 322, 2-(4-fluorobenzyl)-N-isopropyl-N-(3-pyridyl)-N′-((E)-styrylsulfonyl)malonamide]
16 | 8.74 | CCN(CC)C(=O)[C@H](Cc1ccc(NC(=O)c2c(N)cccc2F)cc1)C(=O)NS(=O)(=O)c1ccc2ccccc2c1 [Example 100, (2S)-2-{4-[(2-amino-6-fluorobenzoyl)amino]benzyl}-N,N-diethyl-N′-(2-naphthylsulfonyl)malonamide]
17 | 8.80 | CCN(CC)C(=O)[C@H](Cc1ccc(NC(=O)c2cc(F)c(F)cc2N)cc1)C(=O)NS(=O)(=O)c1ccc2ccccc2c1 [Example 106, (2S)-2-{4-[(2-amino-4,5-difluorobenzoyl)amino]benzyl}-N,N-diethyl-N′-(2-naphthylsulfonyl)malonamide]
18 | 8.05 | C=CCC(C(=O)NS(=O)(=O)/C=C/c1ccccc1)C(=O)N(c1ccc(F)cc1)C(C)C (stereo not shown) [Example 481, 2-allyl-N-(4-fluorophenyl)-N-isopropyl-N′-((E)-styrylsulfonyl)malonamide]
19 | 8.28 | CC(C)CC(C(=O)NS(=O)(=O)CCc1ccccc1)C(=O)N(c1ccc(F)cc1)C(C)C (stereo not shown) [Example 493, N-(4-fluorophenyl)-2-isobutyl-N-isopropyl-N′-phenethylsulfonylmalonamide]
20 | 8.10 | CCN(CC)C(=O)C(Cc1ccc(NC(=O)c2c(F)cccc2F)cc1)C(=O)NS(=O)(=O)c1ccc2ccccc2c1 (stereo not shown) [Example 22, N,N-diethyl-2-{4-[(2,6-difluorobenzoyl)amino]benzyl}-N′-(2-naphthylsulfonyl)malonamide]
21 | 8.80 | CCN(CC)C(=O)[C@H](Cc1ccc(NC(=O)c2ccc(F)cc2N)cc1)C(=O)NS(=O)(=O)c1ccc2ccccc2c1 [Example 107, (2S)-2-{4-[(2-amino-4-fluorobenzoyl)amino]benzyl}-N,N-diethyl-N′-(2-naphthylsulfonyl)malonamide]
22 | 9.05 | CCN(CC)C(=O)[C@H](Cc1ccc(NC(=O)c2cc(F)ccc2N)cc1)C(=O)NS(=O)(=O)c1ccc2ccccc2c1 [Example 99, (2S)-2-{4-[(2-amino-5-fluorobenzoyl)amino]benzyl}-N,N-diethyl-N′-(2-naphthylsulfonyl)malonamide]
23 | 8.08 | CC(C)CC(C(=O)NS(=O)(=O)c1ccc2ccccc2c1)C(=O)N(c1ccc(F)cc1)C(C)C (stereo not shown) [Example 495, N-(4-fluorophenyl)-2-isobutyl-N-isopropyl-N′-(2-naphthylsulfonyl)malonamide]
24 | 8.21 | CC(C)N(C(=O)C(CC1CC1)C(=O)NS(=O)(=O)/C=C/c1ccccc1)c1ccc(F)cc1 (single isomer, unassigned) [Example 516, (2S or 2R)-2-cyclopropylmethyl-N-(4-fluorophenyl)-N-isopropyl-N′-((E)-2-styrylsulfonyl)malonamide]
25 | 8.64 | CCN(CC)C(=O)[C@H](Cc1ccc(NC(=O)c2ccccc2)cc1)C(=O)NS(=O)(=O)c1ccc2ccccc2c1 [Example 92, (2S)-2-[4-(benzoylamino)benzyl]-N,N-diethyl-N′-(2-naphthylsulfonyl)malonamide]
